Measured values: PMC3545186 (Biochemical Pharmacology, 2013)
Like-named read-outs stand apart in the source and are kept apart here. Numbered stars: 1 amine (or outer) side, 2 acyl side, 3 side chain; on linkers, the order of the positions; unused ones are H or OH. Bridge positions count the residues as written; N and C are the ends. Square brackets hold non-standard residues; d marks the D form. Peptide text beside a SMILES is read from it. I, II: the chains in the order shown. Actinocin(9to1) = Cc1c2oc3c(C)ccc(C(=O)[*:1])c3nc-2c(C(=O)[*:2])c(N)c1=O; NMeV = CN[C@H](C(=O)O)C(C)C; Sar = CNCC(=O)O

How the values were obtained:
[1] = type: in vivo, mice; settings: for Liver Cmax / Brain peak area / Kidney concentration / Liver concentration / Brain AUC0–6 h (peak area) / Brain Cmax (peak area) / Kidney AUC0–6 h / Kidney AUC0–∞ / Kidney Cmax / Liver AUC0–6 h / Liver AUC0–∞: 0.5 mg/kg i.v.; for Brain peak area / Kidney concentration / Liver concentration: per gram of tissue
[2] = paediatric patient population; cited from earlier work
ABCB1 (MDR1) = experiment: Growth inhibition; settings: dog, 72 h
MDCKII-ABCB1 cells = experiment: Growth inhibition

Structure (SMILES): Cc1c2oc3c(C)ccc(C(=O)N[C@@H]4C(=O)N[C@H](C(C)C)C(=O)N5CCC[C@H]5C(=O)N(C)CC(=O)N(C)[C@@H](C(C)C)C(=O)O[C@@H]4C)c3nc-2c(C(=O)N[C@@H]2C(=O)N[C@H](C(C)C)C(=O)N3CCC[C@H]3C(=O)N(C)CC(=O)N(C)[C@@H](C(C)C)C(=O)O[C@@H]2C)c(N)c1=O [Act D, actinomycin D] (I: T[dV]P[Sar][NMeV] / II: T[dV]P[Sar][NMeV]; ester I:1-I:C, II:1-II:C; linker I:N-II:N via Actinocin(9to1))
- Liver Cmax ([1]; Abcb1a/1b−/− mice): 2323 ± 239 ng/mL
- Brain peak area ([1]; Abcb1a/1b−/− mice, 0.25 h): 1134 ± 635 pa
- Kidney concentration ([1]; Abcb1a/1b−/− mice, 0.25 h): 13,207 ± 1025 μg/L
- Liver concentration ([1]; Abcb1a/1b−/− mice, 0.25 h): 2323 ± 239 µg/L
- Brain peak area ([1]; Abcb1a/1b−/− mice, 0.5 h): 1420 ± 521 pa
- Kidney concentration ([1]; Abcb1a/1b−/− mice, 0.5 h): 13,163 ± 2521 μg/L
- Liver concentration ([1]; Abcb1a/1b−/− mice, 0.5 h): 1367 ± 133 µg/L
- Brain peak area ([1]; Abcb1a/1b−/− mice, 2 h): 912.7 ± 461 pa
- Kidney concentration ([1]; Abcb1a/1b−/− mice, 2 h): 5327 ± 1257 µg/L
- Liver concentration ([1]; Abcb1a/1b−/− mice, 2 h): 737 ± 172 µg/L
- Brain peak area ([1]; Abcb1a/1b−/− mice, 6 h): 1383 ± 439 pa
- Kidney concentration ([1]; Abcb1a/1b−/− mice, 6 h): 2957 ± 872 µg/L
- Liver concentration ([1]; Abcb1a/1b−/− mice, 6 h): 407 ± 9 µg/L
- Brain AUC0–6 h (peak area) ([1]; Abcc2−/− mice): 3785 pa/g h
- Brain Cmax (peak area) ([1]; Abcc2−/− mice): 1039 ± 181 pa
- Kidney AUC0–6 h ([1]; Abcc2−/− mice): 33,079 μg/L h
- Kidney AUC0–∞ ([1]; Abcc2−/− mice): 48,799 μg/L h
- Kidney Cmax ([1]; Abcc2−/− mice): 13,107 ± 2318 μg/L
- Liver AUC0–6 h ([1]; Abcc2−/− mice): 4445 ng·h/mL
- Liver AUC0–∞ ([1]; Abcc2−/− mice): 5516 ng·h/mL
- Liver Cmax ([1]; Abcc2−/− mice): 1540 ± 356 ng/mL
- Brain peak area ([1]; Abcc2−/− mice, 0.25 h): 972 ± 455 pa
- Kidney concentration ([1]; Abcc2−/− mice, 0.25 h): 13,107 ± 2318 μg/L
- Liver concentration ([1]; Abcc2−/− mice, 0.25 h): 1317 ± 302 µg/L
- Brain peak area ([1]; Abcc2−/− mice, 0.5 h): 1039 ± 181 pa
- Kidney concentration ([1]; Abcc2−/− mice, 0.5 h): 10,593 ± 944 μg/L
- Liver concentration ([1]; Abcc2−/− mice, 0.5 h): 1540 ± 356 µg/L
- Brain peak area ([1]; Abcc2−/− mice, 2 h): 424.3 ± 120 pa
- Kidney concentration ([1]; Abcc2−/− mice, 2 h): 4987 ± 161 µg/L
- Liver concentration ([1]; Abcc2−/− mice, 2 h): 787 ± 99 µg/L
- Brain peak area ([1]; Abcc2−/− mice, 6 h): 733 ± 470 pa
- Kidney concentration ([1]; Abcc2−/− mice, 6 h): 3410 ± 527 µg/L
- Liver concentration ([1]; Abcc2−/− mice, 6 h): 303 ± 128 µg/L
- Brain AUC0–6 h (peak area) ([1]; WT mice): 2943 pa/g h
- Brain Cmax (peak area) ([1]; WT mice): 1071 ± 217 pa
- Kidney AUC0–6 h ([1]; WT mice): 29,552 μg/L h
- Kidney AUC0–∞ ([1]; WT mice): 35,754 μg/L h
- Kidney Cmax ([1]; WT mice): 13,323 ± 3960 μg/L
- Liver AUC0–6 h ([1]; WT mice): 4473 ng·h/mL
- Liver AUC0–∞ ([1]; WT mice): 5387 ng·h/mL
- Liver Cmax ([1]; WT mice): 1810 ± 155 ng/mL
- Brain peak area ([1]; WT mice, 0.25 h): 1071 ± 217 pa
- Kidney concentration ([1]; WT mice, 0.25 h): 13,323 ± 3960 μg/L
- Liver concentration ([1]; WT mice, 0.25 h): 1810 ± 155 µg/L
- Brain peak area ([1]; WT mice, 0.5 h): 775.3 ± 127 pa
- Kidney concentration ([1]; WT mice, 0.5 h): 10,713 ± 2498 μg/L
- Liver concentration ([1]; WT mice, 0.5 h): 1593 ± 167 µg/L
- Brain peak area ([1]; WT mice, 2 h): 501 ± 28.9 pa
- Kidney concentration ([1]; WT mice, 2 h): 4693 ± 415 µg/L
- Liver concentration ([1]; WT mice, 2 h): 747 ± 165 µg/L
- Brain peak area ([1]; WT mice, 6 h): 309 ± 156 pa
- Kidney concentration ([1]; WT mice, 6 h): 1970 ± 150 µg/L
- Liver concentration ([1]; WT mice, 6 h): 287 ± 40 µg/L
- Act D accumulation over 6 h in the kidneys higher than the liver ([1]; irrespective of transporter knockout genotype): 6.6- to 7.7 fold
- range in AUC0–6 h between patients [2]: > 4 fold
- GI50 at 72 h (ABCB1 (MDR1); GI50, MDCKII-ABCB1, + verapamil (1 μM)): 129 nM
- GI50 at 72 h (ABCB1 (MDR1); GI50, MDCKII-ABCB1, Act D alone): 745 nM
- decrease in GI50 with verapamil (MDCKII-ABCB1 cells; MDCKII-ABCB1, verapamil 1 μM, 72 h): 6 fold
- difference in GI50 between MDCKII-WT and MDCKII-ABCB1 (MDCKII-ABCB1 cells; MDCKII-ABCB1 less sensitive than parental): 59 fold
